# Measurements: article PMC11117333, “Design and synthesis of new dihydropyrimidine/sulphonamide hybrids as promising anti-inflammatory agents via dual mPGES-1/5-LOX inhibition” (Frontiers in Chemistry, 2024)
# Several values for one entry are separate records, joined by “and”; a condition that tells them apart may be missing. Equal entries are not always repeated. Marks after values point to notes of the source that are not given here.
# Assays:
# [1] = target: T1, soya bean 5-LOX (Glycine max, UniProt P08170); experiment: 5-LOX enzyme assay (EIA kit, Cayman 760700); assay type: biochemical
# T1 construct: purchased Cayman Chemical, Ann Arbor, Michigan, USA 760700
# T1 sequence (P08170 1-839): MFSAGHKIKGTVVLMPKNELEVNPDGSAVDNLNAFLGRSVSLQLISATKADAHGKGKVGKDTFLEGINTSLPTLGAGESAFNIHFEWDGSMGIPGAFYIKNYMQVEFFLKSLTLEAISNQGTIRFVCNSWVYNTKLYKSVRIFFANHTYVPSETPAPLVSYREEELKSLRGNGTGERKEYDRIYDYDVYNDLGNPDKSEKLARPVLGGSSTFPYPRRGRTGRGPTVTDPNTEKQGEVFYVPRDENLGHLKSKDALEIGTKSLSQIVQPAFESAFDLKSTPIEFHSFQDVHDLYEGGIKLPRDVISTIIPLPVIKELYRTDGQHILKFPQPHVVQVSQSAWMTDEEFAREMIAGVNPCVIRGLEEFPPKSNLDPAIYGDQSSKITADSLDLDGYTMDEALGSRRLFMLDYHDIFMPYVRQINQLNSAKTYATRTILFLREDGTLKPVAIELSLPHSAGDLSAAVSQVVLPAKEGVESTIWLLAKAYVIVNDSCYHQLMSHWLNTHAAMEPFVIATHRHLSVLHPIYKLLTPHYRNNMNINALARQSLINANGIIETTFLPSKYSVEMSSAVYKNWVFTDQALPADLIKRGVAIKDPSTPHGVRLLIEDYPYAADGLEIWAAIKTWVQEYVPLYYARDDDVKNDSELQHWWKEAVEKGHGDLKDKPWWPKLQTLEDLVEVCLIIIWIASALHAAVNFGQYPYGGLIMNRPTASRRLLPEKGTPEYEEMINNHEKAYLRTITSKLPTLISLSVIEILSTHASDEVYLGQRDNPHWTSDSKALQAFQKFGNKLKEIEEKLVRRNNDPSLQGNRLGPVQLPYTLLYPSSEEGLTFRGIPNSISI
# Excerpt: The capacity of compounds 3a–j to inhibit the enzyme 5-lipoxygenase (5-LOX) has been investigated ([Youssif et al., 2019]).
# The study used an enzyme immune assay (EIA) kit (catalogue no. 760700, Cayman Chemical, Ann Arbor, Michigan, USA) to evaluate the inhibitory activity of target analogues against soya bean 5-LOX, ensuring compliance with manufacturer’s instructions and protocols, and calculating IC50 values ([Roschek et al., 2009]).
# [2] = target: T2, mPGES-1 (Homo sapiens, UniProt O14684); experiment: Cell-free mPGES-1 enzyme assay (microsomal fractions from IL-1β-stimulated A549 cells); assay type: biochemical; details: for remaining activity at 10 µM: 10 µM compound, read-out: mPGES-1 RA (%) 10 µM (residual activity percentage); for remaining activity at 10 µM / IC50: cell-free, A549 microsomes; for fold less potent than 3j (mPGES-1): from IC50 values
# T2 construct: microsomal fractions from IL-1β-stimulated A549 cells served as the enzyme source; endogenous in cells; host or cells: A549 cells (IL-1β-stimulated), microsomal fraction
# T2 sequence (O14684 1-152): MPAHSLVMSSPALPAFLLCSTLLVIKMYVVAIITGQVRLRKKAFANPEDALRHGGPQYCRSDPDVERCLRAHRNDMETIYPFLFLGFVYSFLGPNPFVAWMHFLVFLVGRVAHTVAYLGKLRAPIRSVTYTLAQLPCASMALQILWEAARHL
# Description: A cell-free assay was conducted to evaluate the capacity of compounds […] to act as inhibitors of mPGES-1. In this assay, microsomal fractions from IL-1β-stimulated A549 cells served as the enzyme source ([Gürses et al., 2021]). During the initial screening phase, compounds 3a–j were examined for their effects on mPGES-1 at a concentration of 10 µM.
# Microsomal measures of A549 cells expressing mPGES-1 were made in accordance with prior research findings ([Koeberle et al., 2008]). These cells were cultivated in Dulbecco’s Modified Eagle Medium and resuspended in a homogenization buffer. Subsequently, the microsomes were subjected to pre-incubation with either assessed compounds or a carrier solution containing 0.1 percent DMSO. The enzymatic process was halted by introducing FeCl3, citric acid, and 11-PGE2 as an internal standard. The quantities of Prostaglandin E2 (PGE2) were measured via RP-HPLC methodologies.
# [3] = system: carrageen-induced paw edema; experiment: Carrageenan-induced paw edema bioassay; assay type: in vivo, rat; set-up: concentration or dose not given beside the values; details: for % Of edema inhibition 1 h: 1 h after carrageenan injection; for % Of edema inhibition 3 h: 3 h after carrageenan injection; for % Of edema inhibition 5 h: 5 h after carrageenan injection
# Description: The compounds’ efficacy was measured as edema inhibition percentage (EI %) after 1, 3, and 5 h of carrageenan injection vs. the conventional medicine Celecoxib.
# Compounds 3c, 3e, 3h, and 3j were chosen for in vivo anti-inflammatory testing using the carrageen-induced paw edema bioassay method described by [Winter et al, (1962)]. The compounds’ efficacy was measured as edema inhibition percentage (EI%) after 1, 3, and 5 h of carrageenan injection vs. the conventional medicine Celecoxib.
# [4] = system: PGE2; experiment: Rat serum PGE2 after carrageenan (ELISA); assay type: in vivo; details: 4 hours after subcutaneous carrageenan; for PGE2 serum concentration: mean ± SE
# Excerpt: Inhibiting PGE2 is a crucial strategy in anti-inflammatory therapy, playing a pivotal role in managing inflammation and its associated conditions.
# (§1) In this study, specializing ELISA kits were used to determine the concentration of inflammatory cytokines PGE2, IL-6, and TNF-α. The study’s findings were examined in accordance with the instructions provided by the manufacturer, and measurements were taken based on the optical density at 450 nm.
# [5] = system: TNF-α; experiment: Rat serum TNF-α after carrageenan (ELISA); assay type: in vivo; details: for TNFα serum concentration: mean ± SE
# Excerpt: as §1
# [6] = system: IL-6; experiment: Rat serum IL-6 after carrageenan (ELISA); assay type: in vivo; details: for IL-6 serum concentration: mean ± SE
# Excerpt: as §1
# [7] = system: rat intestinal mucosa; experiment: Gastric ulcerogenic activity (macroscopic inspection); assay type: in vivo; set-up: Score: Severity lesions: scale not given here; details: oral 10 mg/kg
# Description: The two most common side effects of long-term NSAID use are gastrointestinal erosion and ulcers ([Hendawy et al., 2021]). As a result, we were curious about the ulcerogenic potential of the most efficacious drugs, 3e and 3j, when given orally. The ulcerogenic effects of 3e and 3j were assessed by macroscopic inspection of rat intestinal mucosa after oral administration of 10 mg/kg of 3e, 3j, indomethacin, and celecoxib ([Manivannan and Chaturvedi, 2011]).
# The ulcerogenic effects of compounds 3e and 3j were evaluated by macroscopic examination of rat intestinal mucosa after oral administration of 10 mg/kg of these compounds and indomethacin and celecoxib ([Manivannan and Chaturvedi, 2011]). See Appendix A for details.
Structure (SMILES),melting point [°C],IC50 [1] [µM],remaining activity at 10 µM [2] [%],IC50 [2] [µM],% Of edema inhibition 1 h [3] [%],% Of edema inhibition 3 h [3] [%],% Of edema inhibition 5 h [3] [%],other results
"COc1cc(C2NC(=S)NC(C)=C2C(=O)Nc2ccc(S(N)(=O)=O)cc2)cc(OC)c1OC (stereo not drawn) [Compound 3d, 6-Methyl-N-[4-sulfamoylphenyl]-2-thioxo-4-[3,4,5-trimethoxyphenyl]-1,2,3,4-tetrahydropyrimidine-5-carboxamide]",270 to 272,3.65,46.8,2.7,–,–,–,–
"COc1ccc(C2NC(=S)NC(C)=C2C(=O)Nc2ccc(S(N)(=O)=O)cc2)cc1O (stereo not drawn) [Compound 3c, 4-[3-hydroxy-4-methoxyphenyl]-6-methyl-N-[4-sulfamoylphenyl]-2-thioxo-1,2,3,4-tetrahydropyrimidine-5-carboxamide]",296,2.87,33.6,1.53,29,46,55,fold less potent than 3j (mPGES-1) [2]: 1.5 fold
"COc1ccc(C2NC(=O)NC(C)=C2C(=O)Nc2ccc(S(N)(=O)=O)cc2)cc1O (stereo not drawn) [Compound 3h, 4-[3-hydroxy-4-methoxyphenyl]-6-methyl-2-oxo-N-[4-sulfamoylphenyl]-1,2,3,4-tetrahydropyrimidine-5-carboxamide]",275 to 279,2.64,31.2,1.32,30,49,58,PGE2 %inhibition [4]: 69%; PGE2 serum concentration [4]: 95.00 ± 2.50^abc pg/mL; TNFα %inhibition [5]: 56%; TNFα serum concentration [5]: 102.70 ± 2.90^ab pg/mL; IL-6 %inhibition [6]: 63%; IL-6 serum concentration [6]: 140.70 ± 4.20^ab pg/mL; fold less potent than 3j (mPGES-1) [2]: 1.5 fold
"COc1ccc2c(c1)c(CC(=O)O)c(C)n2C(=O)c1ccc(Cl)cc1 [Indomethacin, reference compound]",–,–,–,–,–,–,–,Score: No. of gastric ulcers [7]: 8.5 ± 0.40; Score: Severity lesions [7]: 12.50 ± 0.70
"Cc1ccc(-c2cc(C(F)(F)F)nn2-c2ccc(S(N)(=O)=O)cc2)cc1 [Celecoxib, reference compound]",–,–,–,–,40,54,22,Score: No. of gastric ulcers [7]: 2.5 ± 0.10; Score: Severity lesions [7]: 5.80 ± 0.20
"CC1=C(C(=O)Nc2ccc(S(N)(=O)=O)cc2)C(c2ccccc2)NC(=S)N1 (stereo not drawn) [Compound 3a, 6-methyl-4-phenyl-N-[4-sulfamoylphenyl]-2-thioxo-1,2,3,4-tetrahydropyrimidine-5-carboxamide]",266 to 269,5.85,89.2,4.28,–,–,–,–
"COc1ccc(C2NC(=S)NC(C)=C2C(=O)Nc2ccc(S(N)(=O)=O)cc2)cc1OC (stereo not drawn) [Compound 3e, 4-[3,4-dimethoxyphenyl]-6-methyl-N-[4-sulfamoylphenyl]-2-thioxo-1,2,3,4-tetrahydropyrimidine-5-carboxamide]",272 to 274,2.07,28.6,0.97,35,57,65,PGE2 %inhibition [4]: 72.70% and 73%; PGE2 serum concentration [4]: 83.50 ± 2.30 ^b pg/mL; TNFα %inhibition [5]: 67%; TNFα serum concentration [5]: 78.10 ± 2.20 ^b pg/mL; IL-6 %inhibition [6]: 75%; IL-6 serum concentration [6]: 94.10 ± 2.75 ^b pg/mL; Score: No. of gastric ulcers [7]: 0.60 ± 0.01; Score: Severity lesions [7]: 1.00 ± 0.01; Ulceration in the isolated rat stomach (in words) [7]: mild hyperemia but no widespread ulceration
"CC1=C(C(=O)Nc2ccc(S(N)(=O)=O)cc2)C(c2cccc(O)c2)NC(=S)N1 (stereo not drawn) [Compound 3b, 4-[3-hydroxyphenyl]-6-methyl-N-[4-sulfamoylphenyl]-2-thioxo-1,2,3,4-tetrahydropyrimidine-5-carboxamide]",288 to 291,4.82,69.2,3.89,–,–,–,–
"COc1cc(C2NC(=O)NC(C)=C2C(=O)Nc2ccc(S(N)(=O)=O)cc2)cc(OC)c1OC (stereo not drawn) [Compound 3i, 6-methyl-2-oxo-N-[4-sulfamoylphenyl]-4-[3,4,5-trimethoxyphenyl]-1,2,3,4-tetrahydropyrimidine-5-carboxamide]",260 to 263,3.97,53.6,2.89,–,–,–,–
"CC1=C(C(=O)Nc2ccc(S(N)(=O)=O)cc2)C(c2cccc(O)c2)NC(=O)N1 (stereo not drawn) [Compound 3g, 4-[3-hydroxyphenyl]-6-methyl-2-oxo-N-[4-sulfamoylphenyl]-1,2,3,4-tetrahydropyrimidine-5-carboxamide]",270 to 272,4.45,64.7,3.45,–,–,–,–
"CC1=C(C(=O)Nc2ccc(S(N)(=O)=O)cc2)C(c2ccccc2)NC(=O)N1 (stereo not drawn) [Compound 3f, 6-methyl-2-oxo-4-phenyl-N-[4-sulfamoylphenyl]-1,2,3,4-tetrahydropyrimidine-5-carboxamide]",258 to 260,5.34,91.4,4.78,–,–,–,–
"Cc1cnc(NC(=O)C2=C(O)c3ccccc3S(=O)(=O)N2C)s1 [Meloxicam, reference compound]",–,–,–,–,–,–,–,PGE2 %inhibition [4]: 73%; PGE2 %inhibition ([4]; listed as meloxicam): 72.60%; PGE2 serum concentration [4]: 82.50 ± 2.58 ^b pg/mL; TNFα %inhibition [5]: 62%; TNFα serum concentration [5]: 88.50 ± 2.40^ab pg/mL; IL-6 %inhibition [6]: 70%
